{"source": "patent US20010033827A1", "about": "“Inhibition of mucin release from airway goblet cells by polycationic peptides” (priority 1999, published 2001)", "key": {"[1]": {"test_system": "hamster tracheal surface epithelial (HTSE) cells", "test": "Mucin release from cultured airway goblet cells (3H-glucosamine-labelled HTSE cell culture)", "type": "cell-based, Golden Syrian hamsters", "conditions": "for effect on mucin release/secretion (dose dependence): varying concentrations; for effect on mucin release/secretion (dose dependence) / \"inhibition\" of released mucins: 30 min chase, HTSE cells; for inhibitory effect on mucin release after LMWH pretreatment: 10^-5 M peptide, pretreatment with 2×10^-5 M LMWH for 5 min; for \"inhibition\" of released mucins / effect on mucin release, column-purified versus not column purified: 10^-5 M; for effect on mucin release, column-purified versus not column purified: unacetylated peptide", "method": "The effects of poly-L-arginine (PLA) and poly-L-lysine (PLL) on mucin release from cultured airway goblet cells were evaluated. Tracheas obtained from 7-8 week old male Golden Syrian hamsters (Harlan Sprague Dawley, Indianapolis, Ind.) were used to establish a hamster tracheal surface epithelial, (HTSE) cell culture. HTSE cells were harvested and cultured on a thick collagen gel as described in Kim et al., 1989, Exp. Lung Res. 15: 299-314. Mucins were metabolically radiolabeled by incubating confluent cultures (24 well plate, 5×10^5 cells/well) with 0.2 ml/well of a “complete” medium containing 10 μCi/ml of ^3H-glucosamine for 24 hours as described in Kim et al., 1989, Am. J. Resp. Cell Mol. Biol. 1: 137-143. The “complete” medium was prepared by supplementing a mixture of Medium 199/Dulbecco's modified Eagle's medium (DME) (1:1) with insulin (5 μg/ml), transferrin (5 μg/ml), epidermal growth factor (12.5 ng/ml), 0.1 μM hydrocortisone, 0.01 μM sodium selenite, 0.1 μM retinoic acid, and 5% fetal bovine serum (Hyclone, Logan, Utah). At the end of the 24 hour incubation period, the spent media (the pretreatment sample) were collected, and the labeled cultures were washed twice with Dulbecco's PBS without Ca^++ and Mg^++ and then chased for 30 min in the presence of varying concentrations of poly-L-arginine (PLA, average MW 8,900) or poly-L-lysine (PLL, average MW 9,600). The chased media are referred to as the treatment samples. PLA and PLL were prepared in phosphate buffered saline (PBS), and the final pH's of these solutions were adjusted to be between 7.0 and 7.4. […] J. Resp. Cell Mol. Biol. 1: 137-143. At the end of the chase period, floating cells and cell debris were removed from the treatment samples by centrifigation at 12,000×g for 5 min. Fifty μl of the treatment samples were used for lactate dehydrogenase (LDH) assay (as discussed in Example 2 below) and the remaining samples were stored at −80° C. until assayed for their ^3H-mucin contents. High molecular weight glycoconjugates that were excluded after Sepharose CL-4B (Phainacia, Upsaala, Sweden) gel-filtration column chromatography and that were resistant to hyaluronidase, were defined as mucins, as described in Kim et al., 1985, J. Biol. Chem. 260:4021:4027. Mucins were measured by column chromatography as described in Kim et al, 1987, Proc. Natl. Acad. Sci. USA 84:9304-9308."}, "HTSE cells [2]": {"test_system": "HTSE cells", "test": "LDH release cytotoxicity assay in HTSE cells", "type": "cell-based, Golden Syrian hamsters", "conditions": "for cytotoxicity as determined by LDH release / LDH release: HTSE cells; for cytotoxicity as determined by LDH release: techniques of examples 1-4; for LDH release: 10^-5 M, 30 min treatment; for LDH release across concentration groups: varying concentrations, 30 min, HTSE cells (FIG. 2)", "method": "(§1) The effects of PLA or PLL on cell toxicity were also examined. The possible cytotoxicity of these polypeptides was assessed by four different methods: (a) LDH release, (b) ^51Cr release, (c) cell exfoliation, and (d) light microscopy. Cultures were treated with either PLA or PLL for 30 min, and then assayed as follows. An LDH assay was conducted using an LDH assay kit (LD-L10) (Sigma Chemical Co., St. Louis, Mo.), according to the manufacturer's directions. A 51Cr release assay was carried out as described in Kim et al., 1987, Proc. Natl. Acad. Sci. USA 84:9304-9308. The degree of exfoliation was measured by counting the floating cells at the end of the 24 hr post-treatment period. Floating cells were collected as a pellet from spent media by centrifugation at 200×g for 5 min at 4° C. The resulting cell pellet was suspended in a solution containing 0.05% Trypsin and 0.02% EDTA, and the suspension was incubated at 37° C. for 10 min before dissociated cells were counted using a hemacytometer."}, "HTSE cells [3]": {"test_system": "HTSE cells", "test": "51Cr release assay in HTSE cells", "type": "cell-based, Golden Syrian hamsters", "conditions": "10^-5 M, 30 min; control 100±4%", "method": "as §1"}, "HTSE cells [4]": {"test_system": "HTSE cells", "test": "Cell exfoliation (floating cell count) in HTSE cultures", "type": "cell-based, Golden Syrian hamsters", "conditions": "10^-5 M; 24 hr post-treatment period; control 1992±132", "method": "as §1"}, "HTSE cells [5]": {"test_system": "HTSE cells", "test": "Light microscopy of treated HTSE cells", "type": "cell-based, Golden Syrian hamsters", "conditions": "end of 30 min treatment or end of 24 hr post-treatment period", "method": "as §1"}, "HTSE cells [6]": {"test_system": "HTSE cells", "test": "ATP-induced mucin release in HTSE cells", "type": "cell-based, Golden Syrian hamsters", "conditions": "10^-5 M peptide with 2×10^-4 M ATP, 30 min chase", "method": "The effects of poly-L-arginine (PLA) and poly-L-lysine (PLL) on mucin release from cultured airway goblet cells were evaluated. Tracheas obtained from 7-8 week old male Golden Syrian hamsters (Harlan Sprague Dawley, Indianapolis, Ind.) were used to establish a hamster tracheal surface epithelial, (HTSE) cell culture. HTSE cells were harvested and cultured on a thick collagen gel as described in Kim et al., 1989, Exp. Lung Res. 15: 299-314. Mucins were metabolically radiolabeled by incubating confluent cultures (24 well plate, 5×10^5 cells/well) with 0.2 ml/well of a “complete” medium containing 10 μCi/ml of ^3H-glucosamine for 24 hours as described in Kim et al., 1989, Am. J. Resp. Cell Mol. Biol. 1: 137-143. The “complete” medium was prepared by supplementing a mixture of Medium 199/Dulbecco's modified Eagle's medium (DME) (1:1) with insulin (5 μg/ml), transferrin (5 μg/ml), epidermal growth factor (12.5 ng/ml), 0.1 μM hydrocortisone, 0.01 μM sodium selenite, 0.1 μM retinoic acid, and 5% fetal bovine serum (Hyclone, Logan, Utah). […] Mucins were measured by column chromatography as described in Kim et al, 1987, Proc. Natl. Acad. Sci. USA 84:9304-9308. […]"}, "[7]": {"test_system": "SO2-induced goblet cell metaplasia", "test": "SO2-induced goblet cell metaplasia in rats (inhaled peptide, PAS staining)", "type": "in vivo, Sprague-Dawley rats", "conditions": "rat, inhaled 100 μl of 50, 500 or 5,000 μM once a day for five days, 150 ppm SO2", "method": "To examine the effects of PLL or PLA in vivo, the effect of PLL or PLA on goblet cell metaplasia in rats was determined. Exposure of rats to SO2 was carried out essentially according to the method described in Kase et al, 1982, Arzneim-Forsch Drug Research 32:368-373. Eight to ten week-old male Sprague-Dawley rats were placed in a polyacrylic chamber (100 cm×60 cm×25 cm) and exposed to SO2 for three weeks, three hours per day, five days per week. The SO2 gas was generated from a solution containing 10% (W/V) sodium metabisulfite by aerosolization using an ultrasonic humidifier (Samsung Electronic Co., Korea). Concentrations of the generated SO2 gas were monitored before and after the exposure using a SO2 detector kit (Gastec Co., Japan), which has a detection range from 20 to 3600 ppm of SO2. The concentration of the SO2 gas inside the chamber was maintained at 150 ppm during all of the exposure periods.\nPLA (average MW 10,800) was prepared in phosphate buffered saline (PBS), pH 7.2, in various concentrations. Following treatment of the animals with SO2 for 2 weeks, animals were treated with both S and PLA during a third week. A 100 μl aliquot of one of the PLA solutions was administered to each rat using an inhaler (PAPI master, Stamberg, Germany), once a day for five consecutive days, during the period immediately following the two week SO2 treatment period. […]"}}, "data": [{"substance": "poly-L-arginine [Low molecular weight PLA (14 residues)]", "values": [{"measurement": "effect on mucin release/secretion (dose dependence)", "setting": "[1]", "result": "inhibited mucin secretion in a dose dependent fashion"}, {"measurement": "cytotoxicity as determined by LDH release", "setting": "HTSE cells [2]", "result": "without any evidence of cytotoxicity"}]}, {"substance": "poly-L-lysine [Low molecular weight PLL (20 residues)]", "values": [{"measurement": "effect on mucin release/secretion (dose dependence)", "setting": "[1]", "result": "inhibited mucin secretion in a dose dependent fashion"}, {"measurement": "cytotoxicity as determined by LDH release", "setting": "HTSE cells [2]", "result": "without any evidence of cytotoxicity"}]}, {"substance": "poly-L-lysine [High molecular weight PLL]", "values": [{"measurement": "effect on mucin release/secretion (dose dependence)", "setting": "[1]", "result": "inhibited mucin secretion in a dose-dependent fashion"}, {"measurement": "cytotoxicity as determined by LDH release", "setting": "HTSE cells [2]", "result": "associated with cytotoxicity"}]}, {"substance": "poly-L-arginine [Low molecular weight PLA (20 residues)]", "values": [{"measurement": "effect on mucin release/secretion (dose dependence)", "setting": "[1]", "result": "inhibited mucin secretion in a dose dependent fashion"}, {"measurement": "cytotoxicity as determined by LDH release", "setting": "HTSE cells [2]", "result": "without any evidence of cytotoxicity"}]}, {"substance": "poly-L-lysine [Low molecular weight PLL (5 residues)]", "values": [{"measurement": "effect on mucin release/secretion (dose dependence)", "setting": "[1]", "result": "did not show any significant inhibition"}]}, {"substance": "poly-L-lysine [PLL]", "values": [{"measurement": "inhibitory effect on mucin release after LMWH pretreatment", "setting": "[1]", "result": "completely blocked"}, {"measurement": "\"inhibition\" of released mucins", "setting": "[1]", "result": 87, "unit": "%"}, {"measurement": "effect on mucin release, column-purified versus not column purified", "setting": "[1]", "result": "no significant difference"}, {"measurement": "effect on mucin release/secretion (dose dependence)", "setting": "[1]", "result": "dose-dependent decrease"}, {"measurement": "LDH release", "setting": "HTSE cells [2]", "result": "no significant increases"}, {"measurement": "LDH release across concentration groups", "setting": "HTSE cells [2]", "result": "no significant difference"}, {"measurement": "51Cr release", "setting": "HTSE cells [3]", "result": "103±10", "unit": "%"}, {"measurement": "number of floating cells/well", "setting": "HTSE cells [4]", "result": "1920±70", "unit": "cells/well"}, {"measurement": "microscopic difference between control and treated cells", "setting": "HTSE cells [5]", "result": "no apparent microscopic difference"}, {"measurement": "stimulatory effect of ATP on mucin release", "setting": "HTSE cells [6]", "result": "completely blocked"}]}, {"substance": "poly-L-lysine [Low molecular weight PLL (14 residues)]", "values": [{"measurement": "effect on mucin release/secretion (dose dependence)", "setting": "[1]", "result": "inhibited mucin secretion in a dose dependent fashion"}, {"measurement": "cytotoxicity as determined by LDH release", "setting": "HTSE cells [2]", "result": "without any evidence of cytotoxicity"}]}, {"substance": "poly-L-arginine [PLA]", "values": [{"measurement": "inhibitory effect on mucin release after LMWH pretreatment", "setting": "[1]", "result": "completely blocked"}, {"measurement": "\"inhibition\" of released mucins", "setting": "[1]", "result": 85, "unit": "%"}, {"measurement": "effect on mucin release, column-purified versus not column purified", "setting": "[1]", "result": "no significant difference"}, {"measurement": "effect on mucin release/secretion (dose dependence)", "setting": "[1]", "result": "dose-dependent decrease"}, {"measurement": "LDH release", "setting": "HTSE cells [2]", "result": "no significant increases"}, {"measurement": "LDH release across concentration groups", "setting": "HTSE cells [2]", "result": "no significant difference"}, {"measurement": "51Cr release", "setting": "HTSE cells [3]", "result": "102±11", "unit": "%"}, {"measurement": "number of floating cells/well", "setting": "HTSE cells [4]", "result": "2154±84", "unit": "cells/well"}, {"measurement": "microscopic difference between control and treated cells", "setting": "HTSE cells [5]", "result": "no apparent microscopic difference"}, {"measurement": "stimulatory effect of ATP on mucin release", "setting": "HTSE cells [6]", "result": "completely blocked"}]}, {"substance": "poly-L-arginine [High molecular weight PLA]", "values": [{"measurement": "effect on mucin release/secretion (dose dependence)", "setting": "[1]", "result": "inhibited mucin secretion in a dose-dependent fashion"}, {"measurement": "cytotoxicity as determined by LDH release", "setting": "HTSE cells [2]", "result": "associated with cytotoxicity"}]}, {"substance": "poly-L-arginine [PLA (average MW 10,800)]", "values": [{"measurement": "goblet cell metaplasia induced by SO2", "setting": "[7]", "result": "prevented by PLA in a dose-dependent fashion"}]}, {"substance": "poly-L-arginine [PLA (5 residues)]", "values": [{"measurement": "effect on mucin release/secretion (dose dependence)", "setting": "[1]", "result": "did not show any significant inhibition"}]}]}
